Measurements published in the supplement of paper PMC10307832.

Columns and labels:
Assay in all cases: relative viability (nuclei count vs DMSO), 5 days (fraction); higher = more cells survive
[1] = compound: C[C@@H](N)c1ccc(C(=O)Nc2ccnc3[nH]ccc23)cc1 + CS(=O)(=O)CCNCc1ccc(-c2ccc3ncnc(Nc4ccc(OCc5cccc(F)c5)c(Cl)c4)c3c2)o1 [Lapatinib] (partner 2 µM)
Method in brief: (§1)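 After 5 days of treatment, lung cancer cells in 1536-well plates were fixed and stained in a single step (final 0.05% Triton X-100, 1% formaldehyde, 1 ug/ml Hoechst) and their nuclei counted on 4× images. Treatment had been applied by pin tool the day after seeding as one drug alone or as a fixed anchor-drug dose with five library-drug doses (not always all listed) in √10 steps. Relative viability is the nuclei count of treated wells divided by that of vehicle wells, and values are medians of duplicate plates.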

Tanzisertib + Phenformin = compound: O[C@H]1CC[C@H](Nc2ncc3nc(Nc4c(F)cc(F)cc4F)n([C@H]4CCOC4)c3n2)CC1 [Tanzisertib] + N=C(N)NC(=N)NCCc1ccccc1 [Phenformin] (partner 250 µM)
Method in brief: as §1

Tanzisertib + Olaparib = compound: O[C@H]1CC[C@H](Nc2ncc3nc(Nc4c(F)cc(F)cc4F)n([C@H]4CCOC4)c3n2)CC1 [Tanzisertib] + O=C(c1cc(Cc2n[nH]c(=O)c3ccccc23)ccc1F)N1CCN(C(=O)C2CC2)CC1 [Olaparib] (partner 8 µM)
Method in brief: as §1

[2] = compound: C1CNCCC1C2=CC(=NN2)C3=CC=NC=C3 + N=C(N)NC(=N)NCCc1ccccc1 [Phenformin] (partner 250 µM)
Method in brief: as §1

Cell Line	relative viability ([1]; first compound 0.04 µM)	relative viability ([1]; first compound 0.1265 µM)	relative viability ([1]; first compound 0.4 µM)	relative viability ([1]; first compound 1.265 µM)	relative viability ([1]; first compound 4 µM)	relative viability (Tanzisertib + Phenformin; first compound 0.08 µM)	relative viability (Tanzisertib + Phenformin; first compound 0.253 µM)	relative viability (Tanzisertib + Phenformin; first compound 0.8 µM)	relative viability (Tanzisertib + Phenformin; first compound 2.53 µM)	relative viability (Tanzisertib + Phenformin; first compound 8 µM)	relative viability (Tanzisertib + Olaparib; first compound 0.08 µM)	relative viability (Tanzisertib + Olaparib; first compound 0.253 µM)	relative viability (Tanzisertib + Olaparib; first compound 0.8 µM)	relative viability (Tanzisertib + Olaparib; first compound 2.53 µM)	relative viability (Tanzisertib + Olaparib; first compound 8 µM)	relative viability ([2]; first compound 0.08 µM)	relative viability ([2]; first compound 0.8 µM)	relative viability ([2]; first compound 2.53 µM)	relative viability ([2]; first compound 8 µM)
LU99A	1.1	1.09	1.13	0.753	0.906	0.971	0.82	0.884	0.813	0.786	0.268	0.253	0.246	0.276	0.255	0.748	0.877	0.956	0.874
LXF-289	0.968	0.891	0.959	1.02	0.851	0.55	0.532	0.519	0.545	0.535	1.13	1.02	1.12	1.02	1.13	0.449	0.48	0.533	0.496
NCI-H23	0.945	1.27	1.18	–	0.924	0.808	0.808	0.84	0.795	0.668	0.316	0.341	0.36	0.301	0.314	0.722	0.894	0.828	0.847
NCI-H322M	0.807	0.63	0.665	–	0.824	0.788	0.728	0.832	0.81	0.721	0.805	0.836	0.762	0.89	0.726	0.796	0.77	0.856	0.864
NCI-H358	0.482	0.363	0.435	0.465	0.366	0.361	0.318	0.322	0.271	0.212	0.623	0.547	0.586	0.583	0.492	0.199	0.361	0.339	0.28
NCI-H460	0.974	1.1	0.984	1.12	1.03	0.572	0.522	0.489	0.54	0.523	0.487	0.445	0.417	0.442	0.503	0.335	0.72	0.564	0.51
NCI-H520	1.08	0.953	0.949	0.742	1.03	0.734	0.662	0.599	0.609	0.663	0.395	0.331	0.39	0.328	0.433	0.439	0.309	0.758	0.908
NCI-H596	1.29	1.08	1.03	0.955	1.07	0.968	0.626	0.882	0.675	0.602	0.758	0.657	0.622	0.625	0.697	0.657	0.841	0.927	0.86
NCI-H647	0.961	1.07	1.16	1.06	0.901	0.531	0.703	0.481	0.487	0.555	0.875	0.487	0.505	0.657	0.65	0.44	0.487	0.52	0.533
NCI-H650	0.626	0.837	0.859	–	0.696	0.472	0.476	0.461	0.526	0.327	0.373	0.391	0.359	0.426	0.391	0.5	0.451	0.473	0.46
NCI-H661	0.503	0.587	0.607	0.401	0.449	0.32	0.256	0.24	0.285	0.284	0.807	0.756	0.74	0.786	0.724	0.277	0.263	0.273	0.273
NCI-H727	0.863	0.957	1.02	0.513	0.989	0.581	0.504	0.458	0.497	0.465	0.69	0.678	0.553	0.734	0.686	0.529	0.468	0.619	0.631
NCI-H838	0.683	0.922	0.708	0.445	0.427	0.666	0.608	0.628	0.587	0.541	0.823	0.756	0.741	0.725	0.788	0.605	0.546	0.577	0.563
NCI-H1355	0.973	0.972	1.03	–	0.924	0.517	0.44	0.503	0.472	0.431	0.772	0.735	0.756	0.757	0.796	0.482	0.463	0.49	0.456
NCI-H1395	0.935	1.2	0.954	–	0.941	0.481	0.454	0.427	0.456	0.396	0.462	0.445	0.455	0.42	0.45	0.419	0.342	0.419	0.497
